Measurements: patent US12281149B2, “Modulators of G-protein coupled receptors” (priority 2021, dated 2025)
Like-named read-outs stand apart in the source and are kept apart here. *1 amine or outer side, *2 acyl side, *3 side chain or, on linkers, in order; H or OH if unused. Where a SMILES comes first, the peptide text is derived from it. Side-chain parts run from the residue outwards. [ ]: non-standard residue; d: D form. The star is where a group is joined. Isobutyryl(2-(3-CN-5-F-Ph)) = CC(C)(C(=O)*)c1cc(F)cc(C#N)c1; C20 diacid = O=C(O)CCCCCCCCCCCCCCCCCCC(=O)*; γGlu = O=C(O)[C@H](CCC(=O)[*:2])N[*:1]; X22 = CC(C)(C(=O)*)c1ccc(C#N)cc1F; X47 = O=C(CCNCc1cc(O)cc(Cl)c1)*; β3hE = N[C@@H](CCC(=O)O)CC(=O)O; X16 = FC(F)(F)c1cccc(N*)c1; AEEA = NCCOCCOCC(=O)O; Aib = CC(C)(N)C(=O)O; CO = O=C([*:1])[*:2]; GABA = NCCCC(=O)O; βAla = NCCC(=O)O

What was measured:
Format in all cases: cell-based
GLP-1 receptor [1] = target: T1, GLP-1 receptor (Homo sapiens, UniProt P43220); experiment: HitHunter cAMP assay, GLP-1 receptor; conditions: for Emax: read-out: Emax GLP-1R
Experimental: (§1) CAMP accumulation was measured in Chinese hamster ovary (CHO) cells stably expressing the human GLP-1 receptor or GIP receptor using the HitHunter CAMP Assay for Small Molecules Kit (Eurofins). Briefly, cells were grown in Ham's F12 Nutrient Mix with 10% FBS and lifted with Cell dissociation buffer, Enzyme free, PBS based (ThermoFisher). Cells were pelleted and resuspended in Hank's buffered saline solution with 10 mM Hepes and 625 μM 3-isobutyl-1-methylxanthine. The antibody reagent was then added to cells at a 1:2 ratio and 5 μL of mixture was seeded in 384-well small volume white assay plates, at 10,000 cells/well. Cells were then treated with 50 nl compound in DMSO using an ECHO 550 acoustic dispenser (Labcyte) in a 20-point dose response format in triplicate for 30 min. Cells were the lysed and detection reagents added according to the manufacturer's protocol. After overnight incubation, luminescence was measured using a Perkin Elmer Envision plate reader. Raw data was normalized to the maximum signal from GLP-1 or GIP (high) and DMSO (low). Dose response curves were analyzed using GraphPad Prism 9.0.

GIP receptor [2] = target: T2, GIP receptor (Homo sapiens, UniProt P48546); experiment: PathHunter β-arrestin assay, GIP receptor; parameters: host or cells: PathHunter CHO-K1 GIPR β-Arrestin Cell Line
T2 sequence (P48546 22-466): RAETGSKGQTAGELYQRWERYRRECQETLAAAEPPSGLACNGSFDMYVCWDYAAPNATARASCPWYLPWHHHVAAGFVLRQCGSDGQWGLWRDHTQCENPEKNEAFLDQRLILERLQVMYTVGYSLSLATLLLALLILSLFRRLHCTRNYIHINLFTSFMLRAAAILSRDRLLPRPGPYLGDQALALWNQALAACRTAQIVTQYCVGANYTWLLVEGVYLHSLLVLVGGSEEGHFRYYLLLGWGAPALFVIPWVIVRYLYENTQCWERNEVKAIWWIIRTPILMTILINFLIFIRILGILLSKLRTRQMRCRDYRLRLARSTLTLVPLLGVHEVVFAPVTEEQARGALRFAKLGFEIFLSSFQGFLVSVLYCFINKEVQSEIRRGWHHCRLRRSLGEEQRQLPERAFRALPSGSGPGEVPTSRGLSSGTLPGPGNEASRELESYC

GIP receptor [3] = target: T2, GIP receptor; experiment: HitHunter cAMP assay, GIP receptor; conditions: for Emax: read-out: Emax GIP-1R
Experimental: as §1

GLP-1 receptor [4] = target: T1, GLP-1 receptor; experiment: PathHunter β-arrestin assay, GLP-1 receptor; parameters: host or cells: PathHunter CHO-K1 GLP1R β-Arrestin Cell Line
[5] = CHO cells stably expressing human GLP-1 receptor, cAMP accumulation, 30 min, read-out: EC50 GLP-1R
[6] = CHO cells, cAMP, normalized to maximum signal from GLP-1 (high) and DMSO (low)
[7] = β-arrestin-2 recruitment, PathHunter CHO-K1 GIPR β-Arrestin Cell Line, 90 min at 37° C., normalized to GIP, read-out: GIPR β Arrestin EC50
[8] = CHO cells stably expressing GIP receptor, cAMP accumulation, 30 min, read-out: EC50 GIP-1R
[9] = CHO cells, cAMP, normalized to maximum signal from GIP (high) and DMSO (low)
[10] = β-arrestin-2 recruitment, PathHunter CHO-K1 GLP1R β-Arrestin Cell Line, 90 min at 37° C., normalized to GLP-1, read-out: GLP-1R β Arrestin EC50

T1 sequence (P43220 24-463): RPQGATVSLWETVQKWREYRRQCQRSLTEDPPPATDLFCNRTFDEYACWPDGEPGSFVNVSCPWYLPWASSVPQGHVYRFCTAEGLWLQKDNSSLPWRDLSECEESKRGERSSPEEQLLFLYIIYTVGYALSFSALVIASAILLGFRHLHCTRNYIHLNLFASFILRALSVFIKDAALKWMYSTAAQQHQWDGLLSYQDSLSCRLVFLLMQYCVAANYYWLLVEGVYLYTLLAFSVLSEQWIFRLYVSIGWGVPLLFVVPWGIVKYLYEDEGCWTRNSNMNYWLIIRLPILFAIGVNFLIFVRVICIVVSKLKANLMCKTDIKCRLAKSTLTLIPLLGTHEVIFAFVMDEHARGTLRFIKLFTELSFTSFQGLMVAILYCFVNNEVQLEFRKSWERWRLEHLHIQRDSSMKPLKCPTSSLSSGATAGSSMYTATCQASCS

SMILES	EC50 (GLP-1 receptor [1]; [5])	Emax (GLP-1 receptor [1]; [6])	EC50 (GIP receptor [2]; [7])	EC50 (GIP receptor [3]; [8])	Emax (GIP receptor [3]; [9])	EC50 (GLP-1 receptor [4]; [10])	EC50 (GLP-1 receptor [1])	Emax (GLP-1 receptor [1]; CHO)	EC50 (GIP receptor [2])	EC50 (GIP receptor [3])	Emax (GIP receptor [3]; CHO)	EC50 (GLP-1 receptor [4])
CC[C@H](C)[C@H](NC(=O)[C@H](CC(C)C)NC(=O)[C@H](Cc1c[nH]c2ccccc12)NC(=O)[C@H](CCC(N)=O)NC(=O)[C@@H](NC(=O)[C@H](Cc1ccccc1)NC(=O)[C@H](C)NC(=O)[C@H](CCCCNC(=O)COCCOCCNC(=O)COCCOCCNC(=O)CC[C@H](NC(=O)CCCCCCCCCCCCCCCCCCC(=O)O)C(=O)O)NC(=O)[C@H](CCC(N)=O)NC(=O)[C@H](C)NC(=O)[C@@H](NC(=O)[C@H](CCCCN)NC(=O)[C@H](CC(=O)O)NC(=O)[C@H](CC(C)C)NC(=O)C(C)(C)NC(=O)[C@@H](NC(=O)[C@H](CO)NC(=O)[C@H](Cc1ccc(O)cc1)NC(=O)[C@H](CC(=O)O)NC(=O)[C@H](CO)NC(=O)[C@@H](NC(=O)[C@H](Cc1ccccc1)NC(=O)[C@@H](NC(=O)CNC(=O)[C@H](CCC(=O)O)NC(=O)CCNC(=O)C(C)(C)c1ccc(C#N)cc1F)[C@@H](C)O)[C@@H](C)O)[C@@H](C)CC)[C@@H](C)CC)C(C)C)C(=O)N[C@@H](C)C(=O)NCC(=O)NCC(=O)N1CCC[C@H]1C(=O)N[C@@H](CO)C(=O)N[C@@H](CO)C(=O)NCC(=O)N[C@@H](C)C(=O)N1CCC[C@H]1C(=O)N1CCC[C@H]1C(=O)N1CCC[C@H]1C(=O)N[C@@H](CO)C(N)=O [Compound 149] ({X22-βAla}-EGTFTSDYSI[Aib]LDKIAQK([AEEA-AEEA-γGlu-C20 diacid])AFVQWLIAGGPSSGAPPPS-NH2)	0.1 to 1 nM	98%	< 1000 nM	1 to 10 nM	96%	> 1000 nM						
CC[C@H](C)[C@H](NC(=O)[C@H](CC(C)C)NC(=O)[C@H](Cc1c[nH]c2ccccc12)NC(=O)[C@H](CCC(N)=O)NC(=O)[C@@H](NC(=O)[C@H](Cc1ccccc1)NC(=O)[C@H](C)NC(=O)[C@H](CCCCNC(=O)COCCOCCNC(=O)COCCOCCNC(=O)CC[C@H](NC(=O)CCCCCCCCCCCCCCCCCCC(=O)O)C(=O)O)NC(=O)[C@H](CCC(N)=O)NC(=O)[C@H](C)NC(=O)[C@@H](NC(=O)[C@H](CCCCN)NC(=O)[C@H](CC(=O)O)NC(=O)[C@H](CC(C)C)NC(=O)C(C)(C)NC(=O)[C@@H](NC(=O)[C@H](CO)NC(=O)[C@H](Cc1ccc(O)cc1)NC(=O)[C@H](CC(=O)O)NC(=O)[C@H](CO)NC(=O)[C@@H](NC(=O)[C@H](Cc1ccccc1)NC(=O)[C@@H](NC(=O)CNC(=O)[C@H](CCC(=O)O)NC(=O)CCCNC(=O)CNC(=O)Nc1cccc(C(F)(F)F)c1)[C@@H](C)O)[C@@H](C)O)[C@@H](C)CC)[C@@H](C)CC)C(C)C)C(=O)N[C@@H](C)C(=O)NCC(=O)NCC(=O)N1CCC[C@H]1C(=O)N[C@@H](CO)C(=O)N[C@@H](CO)C(=O)NCC(=O)N[C@@H](C)C(=O)N1CCC[C@H]1C(=O)N1CCC[C@H]1C(=O)N1CCC[C@H]1C(=O)N[C@@H](CO)C(N)=O [Compound 263] ({X16-CO}-G[GABA]EGTFTSDYSI[Aib]LDKIAQK([AEEA-AEEA-γGlu-C20 diacid])AFVQWLIAGGPSSGAPPPS-NH2)							1 to 10 nM	98%	> 1000 nM	1 to 10 nM	104%	> 1000 nM
CC[C@H](C)[C@H](NC(=O)[C@H](CC(C)C)NC(=O)[C@H](Cc1c[nH]c2ccccc12)NC(=O)[C@H](CCC(N)=O)NC(=O)[C@@H](NC(=O)[C@H](Cc1ccccc1)NC(=O)[C@H](C)NC(=O)[C@H](CCCCNC(=O)COCCOCCNC(=O)COCCOCCNC(=O)CC[C@H](NC(=O)CCCCCCCCCCCCCCCCCCC(=O)O)C(=O)O)NC(=O)[C@H](CCC(N)=O)NC(=O)[C@H](C)NC(=O)[C@@H](NC(=O)[C@H](CCCCN)NC(=O)[C@H](CC(=O)O)NC(=O)[C@H](CC(C)C)NC(=O)C(C)(C)NC(=O)[C@@H](NC(=O)[C@H](CO)NC(=O)[C@H](Cc1ccc(O)cc1)NC(=O)[C@H](CC(=O)O)NC(=O)[C@H](CO)NC(=O)[C@@H](NC(=O)[C@H](Cc1ccccc1)NC(=O)[C@@H](NC(=O)CNC(=O)[C@H](CCC(=O)O)NC(=O)CCNCc1cc(O)cc(Cl)c1)[C@@H](C)O)[C@@H](C)O)[C@@H](C)CC)[C@@H](C)CC)C(C)C)C(=O)N[C@@H](C)C(=O)NCC(=O)NCC(=O)N1CCC[C@H]1C(=O)N[C@@H](CO)C(=O)N[C@@H](CO)C(=O)NCC(=O)N[C@@H](C)C(=O)N1CCC[C@H]1C(=O)N1CCC[C@H]1C(=O)N1CCC[C@H]1C(=O)N[C@@H](CO)C(N)=O [Compound 275] (X47-EGTFTSDYSI[Aib]LDKIAQK([AEEA-AEEA-γGlu-C20 diacid])AFVQWLIAGGPSSGAPPPS-NH2)	1 to 10 nM	99%	> 1000 nM	10 to 100 nM	17%	> 1000 nM						
CC[C@H](C)[C@H](NC(=O)[C@H](CO)NC(=O)[C@H](Cc1ccc(O)cc1)NC(=O)[C@H](CC(=O)O)NC(=O)[C@H](CO)NC(=O)[C@@H](NC(=O)[C@](C)(Cc1ccccc1F)NC(=O)[C@@H](NC(=O)CNC(=O)[C@H](CCC(=O)O)NC(=O)CCNC(=O)C1(c2ccccc2)CNC(=O)C1)[C@@H](C)O)[C@@H](C)O)C(=O)N[C@@H](Cc1ccc(O)cc1)C(=O)N[C@@H](CC(C)C)C(=O)N[C@@H](CC(=O)O)C(=O)N[C@@H](CCCCN)C(=O)N[C@@H](CCC(N)=O)C(=O)N[C@@H](C)C(=O)N[C@@H](C)C(=O)NC(C)(C)C(=O)N[C@@H](CCC(=O)O)C(=O)N[C@@H](Cc1ccccc1)C(=O)N[C@H](C(=O)N[C@@H](CC(N)=O)C(=O)N[C@@H](Cc1c[nH]c2ccccc12)C(=O)N[C@@H](CC(C)C)C(=O)N[C@@H](CC(C)C)C(=O)N[C@@H](C)C(=O)NCC(=O)NCC(=O)N1CCC[C@H]1C(=O)N[C@@H](CO)C(=O)N[C@@H](CO)C(=O)NCC(=O)N[C@@H](C)C(=O)N1CCC[C@H]1C(=O)N1CCC[C@H]1C(=O)N1CCC[C@H]1C(=O)N[C@@H](CO)C(=O)N[C@@H](CCCCNC(=O)COCCOCCNC(=O)COCCOCCNC(=O)CC[C@H](NC(=O)CCCCCCCCCCCCCCCCCCC(=O)O)C(=O)O)C(N)=O)C(C)C (stereo partly drawn) [Compound 142]	0.1 to 1 nM	99%	< 1000 nM	< 0.1 nM	99%	< 1000 nM						
CC[C@H](C)[C@H](NC(=O)[C@H](CC(C)C)NC(=O)[C@H](Cc1c[nH]c2ccccc12)NC(=O)[C@H](CCC(N)=O)NC(=O)[C@@H](NC(=O)[C@H](Cc1ccccc1)NC(=O)[C@H](C)NC(=O)[C@H](CCCCNC(=O)COCCOCCNC(=O)COCCOCCNC(=O)CC[C@H](NC(=O)CCCCCCCCCCCCCCCCCCC(=O)O)C(=O)O)NC(=O)[C@H](CCC(N)=O)NC(=O)[C@H](C)NC(=O)[C@@H](NC(=O)[C@H](CCCCN)NC(=O)[C@H](CC(=O)O)NC(=O)[C@H](CC(C)C)NC(=O)C(C)(C)NC(=O)[C@@H](NC(=O)[C@H](CO)NC(=O)[C@H](Cc1ccc(O)cc1)NC(=O)[C@H](CC(=O)O)NC(=O)[C@H](CO)NC(=O)[C@@H](NC(=O)[C@H](Cc1ccccc1)NC(=O)[C@@H](NC(=O)CNC(=O)C[C@H](CCC(=O)O)NC(=O)CCNC(=O)C(C)(C)c1cc(F)cc(C#N)c1)[C@@H](C)O)[C@@H](C)O)[C@@H](C)CC)[C@@H](C)CC)C(C)C)C(=O)N[C@@H](C)C(=O)NCC(=O)NCC(=O)N1CCC[C@H]1C(=O)N[C@@H](CO)C(=O)N[C@@H](CO)C(=O)NCC(=O)N[C@@H](C)C(=O)N1CCC[C@H]1C(=O)N1CCC[C@H]1C(=O)N1CCC[C@H]1C(=O)N[C@@H](CO)C(N)=O [Compound 116] ({Isobutyryl(2-(3-CN-5-F-Ph))-βAla}-[β3hE]GTFTSDYSI[Aib]LDKIAQK([AEEA-AEEA-γGlu-C20 diacid])AFVQWLIAGGPSSGAPPPS-NH2)	10 to 100 nM	94%	> 1000 nM	100 to 1000 nM	66%	> 1000 nM						
